Reference: patent US20090042240A1, “RAPID DETECTION OF ANTIMICROBIAL DRUG RESIDUES” (priority 2006, published 2009)

Columns and labels:
Escherichia coli = conditions: additional study 1997; microorganism frozen in skimmed milk, cells washed with saline; cited from earlier work
[1] = cited from earlier work; for Lowest official MRL: official Maximum Residue Limit, unit assumed; for MRL: MRL stated by the European Community
[2] = system: Escherichia coli strain ATCC 11303; test: Detection of quinolones in chicken muscle by solvent extraction, then liquid test (Example 7); format: cell-based; conditions: acetonitrile/acetone extraction
Protocol: Escherichia coli strain ATCC 11303 was grown using well-known methods. The test medium was prepared by adding Escherichia coli cells to the quinolone medium to a final concentration of approximately 10^5 cells/ml. The test was prepared by addition of 250 μl of medium containing the test organism in each test ampoule. Spiked samples were prepared by adding different concentrations of the quinolones described in Table 1 to demineralized water. 100 μl of the spiked sample was added to the test ampoule, a negative control (water without quinolones) was included. The tests were incubated at 37° C. for 4 hours and 45 minutes. The tests were read at the time the test incubated with the negative control sample (water without quinolones) changed color from purple to yellow. In this experiment a mixture of acetonitrile/acetone is used to extract antimicrobial compounds out of the sample, further the experiment is executed as described in Example 2. The sample is obtained as follows: • 1. Weigh out 4 g (±0.03) of sample into a 50 ml plastic disposable centrifuge tube; • 2. Add 10 ml acetonitrile/acetone 70:30 (v/v); • 3. […] Homogenize for 30-40 seconds using an Ultra Turrax; • 5. Place in an ultrasonic bath for 5-10 minutes, then vortex mix for 30-40 seconds; • 6. Centrifuge for 10-12 minutes at 4200 G at 4° C.; • 7. […]

[3] = agar diffusion, Tsai and Kondo 2001; cited from earlier work
[4] = system: Escherichia coli strain ATCC 11303; test: Liquid based microbial screening test for quinolones (Example 2); format: cell-based; conditions: spiked demineralized water, 100 μl sample, 37° C., 4 hours and 45 minutes, colour change purple to yellow
Protocol: In this experiment a liquid based microbial screenings test for the detection of quinolones is described. The quinolone medium used in this experiment is prepared by dissolving the following compounds in 1 liter of demineralized water: • 8.5 gram of Plate Count Broth (PCB) (Difco, cat. no: 275120); • 20 gram of NaCl (Merck, cat. no: 106404); • 0.042 gram of Bromocresol purple (Merck, cat. no: 103025). Escherichia coli strain ATCC 11303 was grown using well-known methods. The test medium was prepared by adding Escherichia coli cells to the quinolone medium to a final concentration of approximately 10^5 cells/ml. The test was prepared by addition of 250 μl of medium containing the test organism in each test ampoule. Spiked samples were prepared by adding different concentrations of the quinolones described in Table 1 to demineralized water. 100 μl of the spiked sample was added to the test ampoule, a negative control (water without quinolones) was included. The tests were incubated at 37° C. for 4 hours and 45 minutes. The tests were read at the time the test incubated with the negative control sample (water without quinolones) changed color from purple to yellow.

Escherichia coli strains = conditions: Choi et al. 1999, animal tissues; cited from earlier work
[5] = system: Escherichia coli ATCC 11303; conditions: milk; Escherichia coli ATCC 11303 frozen in 10% glycerol; cited from earlier work

Row | SMILES | sensitivity (Escherichia coli) [ppb] | Lowest official MRL [1] [µg/kg] | concentration detected [2] [µg/kg] | sensitivity [3] [ppb] | Detection level [4] | MRL [1] [ppb] | detection limit (Escherichia coli strains) [ppb] | sensitivity [5] [ppb]
1 | CN1C[C@@H]2C[C@H]1CN2c1cc2c(cc1F)c(=O)c(C(=O)O)cn2C1CC1 [Danofloxacin] | 8 | 30 | – | – | – | – | – | –
2 | CCn1cc(C(=O)O)c(=O)c2cc3c(cc21)OCO3 [Oxolinic acid] | – | 100 | 10 | 200 | – | – | – | –
3 | CC1CCc2cc(F)cc3c(=O)c(C(=O)O)cn1c23 (centres unmarked) [Flumequin] | – | 400 | 10 | – | 100 | – | – | –
4 | O=C(O)c1cn(-c2ccc(F)cc2)c2cc(N3CCNCC3)c(F)cc2c1=O [Sarafloxacin] | 15 | 10 | – | – | – | 100 | 250 | –
5 | CCN1CCN(c2cc3c(cc2F)c(=O)c(C(=O)O)cn3C2CC2)CC1 [Enrofloxacin] | 6 | – | – | – | – | – | 50 | 2
6 | CN1CCN(c2cc3c(cc2F)c(=O)c(C(=O)O)cn3-c2ccc(F)cc2)CC1 [difloxacin] | – | – | – | – | – | 10 | 250 | –
